According to PubChem BioAssay AID2060325 (Molecular Pharmacology Branch, DTP, NCI, 2025):

Test system: SK-OV-3 multi-cell spheroids, viability
Assay: Anticancer human tumor SK-OV-3 cell line growth inhibition [IpAb];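 for viability, T/C: viability read after seven days of drug exposure; percent of DMSO vehicle control luminescence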
Conditions: for IC50: curve of first compound; for viability, T/C: stronger effect = lower value
Summary of the method: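 Spheroids of 60% malignant cells, 25% HUVEC and 15% MSC were exposed to targeted agents combined with ipatasertib or abemaciclib. Doses started at or near clinical Cmax (10 microM when unknown) and fell in half-log steps.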

[1] = second compound 0.01 µM, first compound 0.0316 µM
[2] = second compound 0.01 µM, first compound 0.1 µM
[3] = second compound 0.01 µM, first compound 0.316 µM
[4] = second compound 0.01 µM, first compound 1 µM
[5] = second compound 0.01 µM, first compound 3.16 µM
[6] = second compound 0.01 µM, first compound 10 µM
[7] = second compound 0.0316 µM, first compound 0.0316 µM
[8] = second compound 0.0316 µM, first compound 0.1 µM
[9] = second compound 0.0316 µM, first compound 0.316 µM
[10] = second compound 0.0316 µM, first compound 1 µM
[11] = second compound 0.0316 µM, first compound 3.16 µM
[12] = second compound 0.0316 µM, first compound 10 µM
[13] = second compound 0.1 µM, first compound 0.0316 µM
[14] = second compound 0.1 µM, first compound 0.1 µM
[15] = second compound 0.1 µM, first compound 0.316 µM
[16] = second compound 0.1 µM, first compound 1 µM
[17] = second compound 0.1 µM, first compound 3.16 µM
[18] = second compound 0.1 µM, first compound 10 µM
[19] = second compound 0.316 µM, first compound 0.0316 µM
[20] = second compound 0.316 µM, first compound 0.1 µM
[21] = second compound 0.316 µM, first compound 0.316 µM
[22] = second compound 0.316 µM, first compound 1 µM
[23] = second compound 0.316 µM, first compound 3.16 µM
[24] = second compound 0.316 µM, first compound 10 µM
[25] = second compound 1 µM, first compound 0.0316 µM
[26] = second compound 1 µM, first compound 0.1 µM
[27] = second compound 1 µM, first compound 0.316 µM
[28] = second compound 1 µM, first compound 1 µM
[29] = second compound 1 µM, first compound 3.16 µM
[30] = second compound 1 µM, first compound 10 µM

Structure (SMILES) | IC50 (second compound 0.01 µM) [nM] | IC50 (second compound 0.0316 µM) [nM] | IC50 (second compound 0.1 µM) [nM] | IC50 (second compound 0.316 µM) [nM] | IC50 (second compound 1 µM) [nM] | viability, T/C [1] [%] | viability, T/C [2] [%] | viability, T/C [3] [%] | viability, T/C [4] [%] | viability, T/C [5] [%] | viability, T/C [6] [%] | viability, T/C [7] [%] | viability, T/C [8] [%] | viability, T/C [9] [%] | viability, T/C [13] [%] | viability, T/C [14] [%] | viability, T/C [19] [%] | viability, T/C [20] [%] | viability, T/C [25] [%] | viability, T/C [26] [%] | further results
C=CC(=O)N1CCN(c2nc(=O)n(-c3c(C)ccnc3C(C)C)c3nc(-c4c(O)cccc4F)c(F)cc23)C(C)C1 (stereo not given) + CCN1CCN(Cc2ccc(Nc3ncc(F)c(-c4cc(F)c5nc(C)n(C(C)C)c5c4)n3)nc2)CC1 | > 10000 | > 10000 | > 10000 | > 10000 | > 10000 | 89.9 | 99.2 | 93.8 | 107 | 96.5 | 61.7 | 74.4 | 82.8 | 79 | 58.8 | 66.5 | 53.7 | 59 | 47 | 53.3 | viability, T/C [10]: 81.8%; viability, T/C [11]: 85.4%; viability, T/C [12]: 53.8%; viability, T/C [15]: 65.5%; viability, T/C [16]: 69%; viability, T/C [17]: 73.2%; viability, T/C [18]: 47.1%; viability, T/C [21]: 61.8%; viability, T/C [22]: 61%; viability, T/C [23]: 62.8%; viability, T/C [24]: 48%; viability, T/C [27]: 53.7%; viability, T/C [28]: 55.5%; viability, T/C [29]: 57.5%; viability, T/C [30]: 46.9%
Cn1ncc(Cl)c1-c1cc(C(=O)NC(CN)Cc2cccc(F)c2)sc1Cl (stereo not given) + CCN1CCN(Cc2ccc(Nc3ncc(F)c(-c4cc(F)c5nc(C)n(C(C)C)c5c4)n3)nc2)CC1 | 66 | 34.7 | < 31.6 | < 31.6 | < 31.6 | 66.5 | 41 | 22.1 | 14.1 | 6.99 | 0.34 | 52.8 | 30.6 | 22.3 | 42.7 | 26.7 | 43.3 | 29.8 | 36.3 | 34.7 | viability, T/C [10]: 13.8%; viability, T/C [11]: 7.67%; viability, T/C [12]: 0.51%; viability, T/C [15]: 18.1%; viability, T/C [16]: 12.9%; viability, T/C [17]: 7.38%; viability, T/C [18]: 0.3%; viability, T/C [21]: 20%; viability, T/C [22]: 15.1%; viability, T/C [23]: 8.84%; viability, T/C [24]: 0.17%; viability, T/C [27]: 24.4%; viability, T/C [28]: 17.8%; viability, T/C [29]: 12.2%; viability, T/C [30]: 0.39%
Cn1ncnc1[C@H]1c2n[nH]c(=O)c3cc(F)cc(c23)N[C@@H]1c1ccc(F)cc1 + CCN1CCN(Cc2ccc(Nc3ncc(F)c(-c4cc(F)c5nc(C)n(C(C)C)c5c4)n3)nc2)CC1 | > 100 | > 100 | > 100 | > 100 | < 0.316 | 83.4 | 60.2 |  |  |  |  | 66.3 | 58.4 |  | 53.2 | 50.5 | 51.4 | 53.3 | 45.4 | 43 | viability, T/C (second compound 0.01 µM, first compound 0.000316 µM): 99.8%; viability, T/C (second compound 0.01 µM, first compound 0.001 µM): 93.9%; viability, T/C (second compound 0.01 µM, first compound 0.00316 µM): 86.6%; viability, T/C (second compound 0.01 µM, first compound 0.01 µM): 86.3%; viability, T/C (second compound 0.0316 µM, first compound 0.000316 µM): 75.2%; viability, T/C (second compound 0.0316 µM, first compound 0.001 µM): 81.6%; viability, T/C (second compound 0.0316 µM, first compound 0.00316 µM): 70.7%; viability, T/C (second compound 0.0316 µM, first compound 0.01 µM): 63.4%; viability, T/C (second compound 0.1 µM, first compound 0.000316 µM): 60.7%; viability, T/C (second compound 0.1 µM, first compound 0.001 µM): 59.5%; viability, T/C (second compound 0.1 µM, first compound 0.00316 µM): 56.4%; viability, T/C (second compound 0.1 µM, first compound 0.01 µM): 53.4%; viability, T/C (second compound 0.316 µM, first compound 0.000316 µM): 55.8%; viability, T/C (second compound 0.316 µM, first compound 0.001 µM): 56.3%; viability, T/C (second compound 0.316 µM, first compound 0.00316 µM): 52.1%; viability, T/C (second compound 0.316 µM, first compound 0.01 µM): 52%; viability, T/C (second compound 1 µM, first compound 0.000316 µM): 49.5%; viability, T/C (second compound 1 µM, first compound 0.001 µM): 45.1%; viability, T/C (second compound 1 µM, first compound 0.00316 µM): 43.2%; viability, T/C (second compound 1 µM, first compound 0.01 µM): 46.4%
